Data from patent US20250092353A1, “COMMENSAL FUNGUS AND USES THEREOF” (YEDA RESEARCH AND DEVELOPMENT CO. LTD., priority 2022, published 2025).

Experiments:
[1] = Biolog Phenotype MicroArrays for chemical sensitivity (PM21-PM25); type: cell-based; details: compared to C. albicans; normalized AUC of growth
Method: FIGS. 2A-2F include micrographs, graphs, a plot, and a curve showing in vitro culture characteristics of K. weizmannii. (2A) Representative images of C. albicans and K. weizmannii in liquid media in presence of filament-inducing conditions, n=3 independent experiments. (2B) A graph showing largest differences in growth between K. weizmannii and C. albicans with different carbon sources, based on a z-score > or <2. Differences were calculated using the normalized area under the curve (AUC) of K. weizmannii and C. albicans. Normalization of the AUC are based on the growth of both species with glucose. Size of data points corresponds to the normalized AUC of K. weizmannii with the corresponding carbon source. All measurements were done using the Biolog Phenotype MicroArrays in biological triplicates. […] The data points are color-coded according to the different types of carbon sources. (2C) A graph showing the largest differences in growth between K. weizmannii and C. albicans with different nitrogen sources, based on a z-score greater than or less than 2. Differences were calculated using AUC of K. weizmannii and C. albicans and normalized based on the growth of both species with glutamine. […] GFP expressing C. albicans was detected by flowcytometry to discriminate between fungi, n=2 independent experiments.

[2] = Fungal-mediated pathology in cortisone 21-acetate immunosuppressed colonized mice; type: in vivo; details: cortisone 21-acetate 225 mg/kg s.c. every other day
Method: Stably fungal-colonized mice were 5×s.c injected with 225 mg kg-1 with cortisone 21-acetate, following the scheme of injection every other day as described previously (Solis and Filler, 2012). Mice were monitored for weight loss. Following sacrifice, organs and feces were collected for histological examination, flow cytometry and fungal cultivations). If the weight dropped […], mice were sacrificed according to IACUC protocol.
Mice were euthanized and intestines, kidneys and tongue were excised and fixed overnight in 4% paraformaldehyde at 4° C. Paraffin embedding and sectioning was performed by the institutional histology unit. For immunohistochemistry of gut samples, slides were deparaffinized by 2 washes of Xylene followed by 100%, 96%, 70% EtOH and three washes with PBS. Slides were incubated for 30 minutes in 1% hydrogen peroxide in PBS at room temperature in the dark. After washing three times in PBS, slides were boiled for 10 minutes in Citric acid buffer pH 6.0 (10 mM citric acid and 0.05% Tween-20 in DDW), then washed with PBS three times. […] For histopathology of typical tongue or kidney fungal lesions in the mouse model of immunosuppression, paraffin sections were stained with periodic acid-Schiff (PAS) or H&E and slides were captured using a Panoramic SCAN II (3DHISTECH) and analyzed using CaseViewer software (3DHISTECH).

[3] = tested on: C. albicans SC5314 (ENO1-GFP); experiment: In vivo competition with C. albicans in Abx-treated SPF mice (co-inoculation, cohousing)
Text: FIGS. 3A-3M include fluorescent micrographs, graphs, and a scheme, showing K. weizmannii competition with C. albicans in colonized animals. (3A) A representative picture of a far-red fluorescent reporter Kazachstania strain (K. weizmannii ENO1-Mirf). (3B-C) Recoverable fecal K. weizmannii in colonized wild-type animals (without antibiotics) one and six months after single oral K. weizmannii ENO1-Mirf inoculation. (3D) Flow cytometric analysis of C. albicans SC5314 (ENO1-GFP), K. weizmannii (ENO1-Mirf), and mixed cultures used for oral inoculation (3E). […] Quantification (n=3-5 mice per group, 4 independent experiments) (see (3D). (3H) Schematic non-limiting outline of a co-housing experiment. (3I) Representative flow cytometric feces analysis of colonized mice 4 weeks after initial colonization (before cohousing) and 2 weeks after co-housing. (N=4 per group). (3J) Percentages of respective labelled fungi in feces of C. albicans, K. weizmannii colonized animals, before and after co-housing in Abx presence (except for day 48 and 58); antibiotics withdrawal on day 46 of cohousing, n=4 per group, representative of 2 independent experiments. (3K) Flow cytometric analysis of feces of germfree animals 1 week after oral inoculation of single fungi cultures or mixed C. albicans SC5314 (ENO1-GFP)/K. weizmannii (ENO1-Mirf) culture. […]

Kazachstania weizmannii [K. weizmannii]
resistance to chemical inhibitors, azoles [1]: relative resistance to propriconazole and fucinazole | sensitivity to chemical inhibitors, chlorides and bromides [1]: more sensitive to chlorides and bromides | weight loss and fungal spread [2]: neither weight loss nor evidence of fungal spread | C. albicans colonization after co-inoculation ([3]; Abx-treated mice, 1:1 mixture of K. weizmannii and C. albicans): Candida colonization was prevented | displacement of established commensal C. albicans ([3]; mice stably colonized with C. albicans (on Abx) cohoused with K. weizmannii-harboring mice): progressive rapid ousting of C. albicans
